In patent US20250188141A1, “DECOY PEPTIDES FOR TREATING DISEASES OR CONDITIONS MODULATED BY INTERLEUKIN-33” (University of Maryland, Baltimore, priority 2022, published 2025):
No end group written: not given here.

Columns and labels:
[1] = tested on: Wild-type C57BL/6 mice challenged with BLM; test: Acute BLM model in vivo (single intratracheal 0.075 U BLM), therapeutic regimen with Series 2 peptides; set-up: species or system mouse; settings: for pulmonary levels of IL-33 (ELISA, lung homogenates) / total lung collagen (QuickZyme assay): 10 nmol/g intraperitoneal daily on days 5-13, day 14; for signs of toxicity (ruffled fur, hunched posture, reduced mobility, diarrhea, weight lost, tachypnea) / therapeutic effect against fibrosis: acute BLM injury model; for signs of toxicity (ruffled fur, hunched posture, reduced mobility, diarrhea, weight lost, tachypnea): in vivo; for therapeutic effect against fibrosis: therapeutic mode
Excerpt: FIG. 2. Design of decoy peptides in Series 2 (A), the effects of peptides 2-5 and 2-10 on pulmonary levels of IL-33 (B, D), and collagen (C, D) proteins in the acute BLM model in vivo. In panels B and D, mean ±SD values are shown. […] Wild-type C57BL/6 mice were challenged with a single intratracheal instillation of 0.075 U of BLM or PBS vehicle, and the disease was allowed to evolve for 5 days. On days 5-13, mice received daily intraperitoneal injections of 10 nmol/g of peptides 2-5 or 2-10, or PBS vehicle. Mice were euthanized on day 14, and IL-33 levels measured by ELISA in lung homogenates, whereas total lung collagen was measured using QuickZyme assays.
(§1) We propose development of a new IL-33 attenuating therapy based on CPP-DP-based strategy. […] In each peptide 1-1 and 1-2, the CPP penetratin was N-terminally fused to the DP. The final sequences of peptides 1-1 and 1-2 were […] (SEQ ID NO:69) and ROIKIWFONRRMKWKKFRRETTKRPSLKTG (SEQ ID NO:70), respectively, with the CPP portion shown in italic and the DP portions underlined. Primary fibroblasts were electroporated with FLIL33-encoding and, separately, control non-coding vehicle (NULL) plasmids, and, after 24 h, the medium was replaced with added peptides 1-1 or 1-2. Based on our experience with CPP-DPs, initial concentrations of 20 μM and 40 μM were tested. After an additional 24 h, cells were lysed and the lysates were analyzed for the levels of IL-33 by ELISA. […] The most likely explanation for this effect is based on our previous experience of depleting IPOS with CRISPR-Cas9, AdV-shRNA, and siRNA technologies (Clerman et al., J Biol Chem. (2017). 292:21653-61: Kopach et al., J Biol Chem. (2014). 289:11829-43). We previously observed that a complete or nearly complete depletion of IPO5 using these methodologies quickly leads to cell death, whereas substantial yet incomplete depletion of IPO5 levels abrogates FLIL33 without affecting cell viability. We argue that peptide 1-1 is “too effective” in binding IPO5, thus competing for it not only with FLIL33 but also with other critical molecular partners, and ultimately impeding on cell survival. We then undertook a more rigorous, unbiased approach, based on the following considerations. As stated above in relation to Example 1, there are possible multiple other regions in the N-terminal portion of FLIL33 that control its stability, subcellular localization, secretion, maturation, and functional binding of intracellular molecular partners. Targeting by DPs needs to cover the entire N-terminal part of FLIL33 and be performed in a systematic fashion, and the data integrated with the observations in Examples 1 and 2. […] We began by designing Series 2 of overlapping DPs that together cover the entire N-terminus of FLIL33. In all cases, a different CPP (TAT) is fused on the N terminus, based on the possibility that it may decrease the peptide load per cell and thus limit toxicity. […] We then proceeded to test the capacity of this peptide to deplete the levels of IL-33 in vivo and to determine whether such depletion may be protective, in the therapeutic mode, against fibrosis in the acute BLM injury model. […] Thus, peptide 2-5 fused with TAT may be a promising therapeutic agent. However, this and other peptides in this series need to be considered in detail.

[2] = tested on: mice chronically challenged with BLM; test: Chronic BLM challenge model (BLM intraperitoneally twice a week for 33 days), treatment with CPP-DPs; format: in vivo, mouse; settings: for total body weight over time: intraperitoneal three times a week, started after 14 days of challenge
Excerpt: FIG. 6. Therapeutic effects of CPP-DPs in the chronic BLM challenge model. A. Time course schematic of the chronic BLM challenge model. B. Time-dependent changes in total body weight (mean percent of initial body weight ±SD. Asterisks indicate higher (p<0.05) body weights in CPP-DP-treated compared to PBS control-treated mice. C. Individual collagen levels, μg per mg of wet lung tissue (left), and IL-33 levels, pg per mg of wet lung tissue (right), in lung homogenates from mice treated as indicated. Asterisks indicate lower (p<0.05) levels in BLM-challenged, PBS-treated control mice.
We then considered that such acute model of bleomycin injury, despite its universal use in this field of work, is well known to represent the chronic nature of human pulmonary fibrosis less accurately than the chronic model of systemic BLM delivery. In the chronic model, BLM is injected intraperitoneally twice a week for 33 days, with subsequent assessment of pulmonary changes (FIG. 6A). We challenged mice in this fashion, and, after 14 days such chronic challenge at which point the decline in their total body weight became obvious (FIG. 6B), initiated treatment with CPP-DP5, CPP-DP10, or PBS injected intraperitoneally three times a week (FIG. 6A). […] Of note, such therapy with CPP-DP5 was efficacious despite the continued challenge with repeated administration of BLM (FIG. 6A).

[3] = tested on: mice challenged intratracheally with a single dose bleomycin (BLM); test: Acute BLM challenge model (intratracheal 0.08 U BLM), therapeutic regimen with CPP-DPs; format: in vivo, mouse; settings: for collagen accumulation in lung / pulmonary IL-33 accumulation: end of 3 weeks, vs PBS-treated animals; for total body weight over time: intraperitoneal once a day from day 8 for 2 weeks, vs BLM-challenged, PBS-treated mice
Excerpt: FIG. 5. Therapeutic effects of CPP-DPs in the acute BLM challenge model. A. Time course schematic of the acute BLM challenge model. […] Data in panels B and C were pooled data from separate 3 experiments.
To test the ability of these peptides to deplete the levels of IL-33 in vivo and to assess their ability to modulate the degree of pulmonary fibrosis, these peptides were synthesized, HPLC-purified, and tested in the therapeutic regimen in mice challenged intratracheally with a single dose bleomycin (BLM). In this acute BLM challenge mode, mice received intratracheal 0.08 U of BLM or an equal volume phosphate-buffered saline (PBS) control and allowed to respond to such injury for a week without any intervention. On day 8, intraperitoneal administrations of CPP-DPs once a day were started and continued for 2 weeks. In the end of the 3 weeks, mice have been euthanized, lungs extracted, and pulmonary levels of IL-33 and collagen measured.

IL-33 = test: Initial cell culture screening tests of Series 2 peptides for depletion of IL-33; format: cell-based; settings: TAT-fused Series 2 peptide, most pronounced of the series
Excerpt: We propose development of a new IL-33 attenuating therapy based on CPP-DP-based strategy. […] In each peptide 1-1 and 1-2, the CPP penetratin was N-terminally fused to the DP. The final sequences of peptides 1-1 and 1-2 were […] (SEQ ID NO:69) and ROIKIWFONRRMKWKKFRRETTKRPSLKTG (SEQ ID NO:70), respectively, with the CPP portion shown in italic and the DP portions underlined. Primary fibroblasts were electroporated with FLIL33-encoding and, separately, control non-coding vehicle (NULL) plasmids, and, after 24 h, the medium was replaced with added peptides 1-1 or 1-2. Based on our experience with CPP-DPs, initial concentrations of 20 μM and 40 μM were tested. After an additional 24 h, cells were lysed and the lysates were analyzed for the levels of IL-33 by ELISA. […] The most likely explanation for this effect is based on our previous experience of depleting IPOS with CRISPR-Cas9, AdV-shRNA, and siRNA technologies (Clerman et al., J Biol Chem. (2017). 292:21653-61: Kopach et al., J Biol Chem. (2014). 289:11829-43). […]
Studies in human and mouse cell cultures. […] CPP-DPs and control CPPs will be added to cell culture, and the levels of the overexpressed proteins assessed in cell lysates by ELISA as well as by WB for the HA-tag, which is attached to the C-terminus of all of these proteins.

Primary fibroblasts = test: Cell viability / toxicity of peptides in FLIL33-overexpressing or NULL-transfected primary fibroblasts; format: cell-based; settings: for effect on cell viability (toxicity to cells): initial concentrations of 20 μM and 40 μM, FLIL33-overexpressing or NULL-transfected fibroblasts, 24 h
Excerpt: as §1

[4] = vs CPP-DP10-treated and PBS-treated controls

Substance | pulmonary levels of IL-33 (ELISA, lung homogenates) [1] | total lung collagen (QuickZyme assay) [1] | signs of toxicity (ruffled fur, hunched posture, reduced mobility, diarrhea, weight lost, tachypnea) [1] | therapeutic effect against fibrosis [1] | total body weight over time [2] | collagen accumulation in lung [3] | total body weight over time [3] | collagen accumulation in lung [2, 4] | pulmonary IL-33 accumulation [2, 4] | pulmonary IL-33 accumulation [3] | depletion of IL-33 (IL-33) | effect on cell viability (toxicity to cells) (Primary fibroblasts) | concentrations at which the peptide remains toxic (as low as) (Primary fibroblasts; serial dilutions) [nM] | toxicity at concentrations lower than 2.5 μM (Primary fibroblasts; serial dilutions, lower concentrations)
GRKHKRHLVLAACQQQ [peptide 2-10] | not | not | Neither of these two peptides caused any signs of toxicity | did not | not | not | closely followed the same trend |  |  |  |  |  |  | 
QQKAKEVCPMYFMKLR [peptide 2-5] | attenuated the levels of IL-33 | arrested deposition of collagen | Neither of these two peptides caused any signs of toxicity | encouraging therapeutic effect | regained their body weight in a time-dependent fashion | significantly less collagen | quickly recovered their body weight | significantly less collagen | significantly less | significantly less | exceeding 60 % of the original levels |  |  | 
RQIKIWFQNRRMKWKKFMKLRSGLMIKKEA-NH2 [peptide 1-1] |  |  |  |  |  |  |  |  |  |  |  | highly toxic to cells | ≥ 2500 | becomes non-toxic
RQIKIWFQNRRMKWKKFRRETTKRPSLKTG-NH2 [peptide 1-2, ROIKIWFONRRMKWKKFRRETTKRPSLKTG] |  |  |  |  |  |  |  |  |  |  |  | no effect on cell viability |  | 
SGLMIKKEACYFRRET [2-7] |  |  |  |  |  | significantly less collagen | quickly recovered their body weight |  |  | significantly less |  |  |  | 
